Assay results published in US8530408B2, “Substrates of N-end rule ubiquitylation and methods for measuring the ubiquitylation of these substrate” (Meso Scale Technologies LLC, priority 2002, dated 2013).

How the values were obtained:
tau ubiquitylation = assay: ECL assay for N-end rule ubiquitylation of tau; format: biochemical; conditions: 1 mM inhibitor; rabbit reticulocyte lysate; 50 μM MG-132; 30° C.; FIG. 3(A),(B)
Description: (§1) Protein was produced from the plasmid DNA in a transcription-translation reaction mixture containing rabbit reticulocyte lysate and SP6 RNA polymerase (TNT SP6 Quick Mix, Promega) and that was further supplemented with 20 μM methionine, 8-30 μg/ml plasmid DNA, 20 μg/ml biotinylated Lys-tRNA (transcend tRNA, Promega), and 50 μM of the proteosome inhibitor MG-132 (Calbiochem) in a total volume of 12.5 μl. Ubiquitylation of newly synthesized proteins occurred in the same reaction mixtures and was driven by the ubiquitylation system present in reticulocyte lysates. An ECL-based ubiquitylation assay (described below) was used to determine if the newly synthesized protein was ubiquitylated. […]
(§2) The reactions were allowed to proceed for a desired period of time at 30° C. In some experiments, several reaction time points were analyzed. […] Thereafter the plate was washed three times with 20 mM Tris-HCl, 0.004% Triton X-100 followed by addition of 150 μl of a buffered solution containing tripropylamine (MSD Read Buffer, Meso-Scale Discovery, Gaithersburg Md.) into each well. ECL signals from labels bound to the electrode surfaces were measured using a Sector HTS instrument. […]

cdc6 ubiquitylation = assay: ECL assay for N-end rule ubiquitylation of CDC6; format: biochemical; conditions: 1 mM inhibitor; rabbit reticulocyte lysate; 50 μM MG-132; 30° C.; FIG. 7(A),(B)
Description: as §1
(§3) The reactions were allowed to proceed for a desired period of time at 30° C. In some experiments, several reaction time points were analyzed. […] Thereafter the plate was washed three times with 20 mM Tris-HCl, 0.004% Triton X-100 followed by addition of 150 μl of a buffered solution containing tripropylamine (MSD Read Buffer, Meso-Scale Discovery, Gaithersburg Md.) into each well. ECL signals from labels bound to the electrode surfaces were measured using a Sector HTS instrument.
Cell Cycle Controller cdc6 was produced using IMAGE clone #3867414 and analyzed for its ability to act as an N-end rule substrate by ECL assay and by gel electrophoresis as described in the Materials and Methods.

RGS4 ubiquitylation = assay: ECL assay for N-end rule ubiquitylation of RGS4; format: biochemical; conditions: 1 mM inhibitor; rabbit reticulocyte lysate; 50 μM MG-132; 30° C.; FIG. 2(A),(B)
Description: as §1, §2

HMGN2 ubiquitylation = assay: ECL assay for N-end rule ubiquitylation of HMGN2; format: biochemical; conditions: 1 mM inhibitor; rabbit reticulocyte lysate; 50 μM MG-132; 30° C.; FIG. 6(A),(B)
Description: as §1, §3
High Mobility Group Chromosomal Protein 17 (now renamed HMGN2) was produced using IMAGE clone #3455121 and analyzed for its ability to act as an N-end rule substrate by ECL assay as described in Materials and Methods. […]

aprataxin ubiquitylation = assay: ECL assay for N-end rule ubiquitylation of aprataxin; format: biochemical; conditions: 1 mM inhibitor (equivalent concentrations); rabbit reticulocyte lysate; 50 μM MG-132; 30° C.; FIG. 4(A),(B)
Description: as §1, §3
Aprataxin was produced using IMAGE clone #3994375 and analyzed for its ability to act as an N-end rule substrate by ECL assay and by gel electrophoresis as described in the Materials and Methods.

[1] = tested on: synaptotagmin-like protein 2 ubiquitylation; assay: ECL assay for N-end rule ubiquitylation of synaptotagmin-like protein 2; format: biochemical; conditions: 1 mM inhibitor; rabbit reticulocyte lysate; 50 μM MG-132; 30° C.; FIG. 5(A),(B)
Description: as §1, §3
Synaptotagmin-like protein 2 was produced using IMAGE clone #3887550 and analyzed for its ability to act as an N-end rule substrate by ECL assay and by gel electrophores is as described in the Materials and Methods.

PinX1 ubiquitylation = assay: ECL assay for N-end rule ubiquitylation of PinX1; format: biochemical; conditions: 1 mM inhibitor; rabbit reticulocyte lysate; 50 μM MG-132; 30° C.; FIG. 9(A),(B)
Description: as §1, §3
PinX1 was produced using IMAGE clone #3911679 and analyzed for its ability to act as an N-end rule substrate by ECL assay as described in the Materials and Methods.

HMGN3 ubiquitylation = assay: ECL assay for N-end rule ubiquitylation of HMGN3; format: biochemical; conditions: 1 mM inhibitor; HMGN3 from clones #3890883 and #4749335, effect most pronounced for clone #4749335; rabbit reticulocyte lysate; 50 μM MG-132; 30° C.; FIG. 10
Description: as §1, §3
HMGN3 was produced using IMAGE clones #3890883 and #4749335 and analyzed for its ability to act as an N-end rule substrate by ECL assay as described in Materials and Methods.

HSPC144 ubiquitylation = assay: ECL assay for N-end rule ubiquitylation of HSPC144; format: biochemical; conditions: 1 mM inhibitor; rabbit reticulocyte lysate; 50 μM MG-132; 30° C.; FIG. 8(A),(B)
Description: as §1, §3
HSPC144 was produced using IMAGE clone #3907737 and analyzed for its ability to act as an N-end rule substrate by ECL assay as described in the Materials and Methods.

[2] = tested on: RGS4 ubiquitin/proteosome degradation via N-end rule pathway; assay: Denaturing gel analysis of N-end rule-dependent degradation of RGS4; format: biochemical, rabbit; conditions: [14C]-lysine, MG-132 omitted, SDS-PAGE time course, 30° C.; FIG. 2(C)
Description: Proteins were synthesized as described in the previous section except that biotinylated Lys-tRNA was substituted with [^14C]-lysine, and MG-132 was omitted. The reactions were incubated at 30° C. for indicated times. They were stopped by transferring of aliquots of reactions into SDS-sample buffer. The samples were heated for 5 min at 95° C. and fractionated by SDS-PAGE on 4-20% gradient polyacrylamide gels. Gels were soaked in Amplify™ fluorographic reagent (Amersham Pharmacia Biotech), dried and exposed to X-ray films.
RGS4 was produced and characterized as an N-end rule substrate as described in the Materials and Methods section. RGS4 is a known Type 1 N-end rule ubiquitylation substrate (Davydov and Varshavsky, 2000, J. Biol. Chem., 275: 22931).

Row | Substance | % of tau ubiquitylation in the presence of specific N-end rule inhibitors compared to the reaction in the absence of the inhibitors (tau ubiquitylation) | % of cdc6 ubiquitylation in the presence of specific N-end rule inhibitors compared to the reaction in the absence of the inhibitors (cdc6 ubiquitylation) | % of RGS4 ubiquitylation in the presence of specific N-end rule inhibitors compared to the reaction in the absence of the inhibitors (RGS4 ubiquitylation) | % of HMGN2 ubiquitylation in the presence of specific N-end rule inhibitors compared to the reaction in the absence of the inhibitors (HMGN2 ubiquitylation) | % of aprataxin ubiquitylation in the presence of specific N-end rule inhibitors compared to the reaction in the absence of the inhibitors (aprataxin ubiquitylation) | % of synaptotagmin-like protein 2 ubiquitylation in the presence of specific N-end rule inhibitors compared to the reaction in the absence of the inhibitors [1] | % of PinX1 ubiquitylation in the presence of specific N-end rule inhibitors compared to the reaction in the absence of the inhibitors (PinX1 ubiquitylation) | % of HMGN3 ubiquitylation in the presence of specific N-End Rule inhibitors compared to the reaction in the absence of the inhibitors (HMGN3 ubiquitylation) | % of HSPC144 ubiquitylation in the presence of specific N-end rule inhibitors compared to the reaction in the absence of the inhibitors (HSPC144 ubiquitylation) | accumulation of the C-terminal fragment of RGS4 having the N-terminal Met removed (autoradiogram) [2]
1 | Trp-Ala | little to no effect | smaller effect | little to no effect | little to no effect | little to no effect | inhibit synaptotagmin-like protein 2 ubiquitylation to a similar extent | no effect | little effect | no effect | –
2 | Arg-β-Ala | inhibit tau ubiquitylation to a similar extent | inhibit cdc6 ubiquitylation to a similar extent | inhibit RGS4 ubiquitylation to a similar extent | inhibit HMGN2 ubiquitylation to a similar extent | inhibit aprataxin ubiquitylation to a similar extent | little to no effect | inhibit PinX1 ubiquitylation to a similar extent | inhibit HMGN3 ubiquitylation to a greater extent | inhibit HSPC ubiquitylation to a similar extent | time dependent accumulation exclusively in the presence of Arg-β-Ala inhibitor
